According to US20240181022A1, “AMURINS LYSINS, AND LYSIN-ANTIMICROBIAL PEPTIDE (AMP) CONSTRUCTS ACTIVE AGAINST GRAM-NEGATIVE BACTERIA” (priority 2021, published 2024):
In brackets after ≈: the same amount, converted by molar mass. Where two headings read alike, the source gives them in different places. Where a SMILES comes first, the peptide text is derived from it. Where no end group is shown, it is not given here. [ ]: non-standard residue; d: D form.

Tests used:
A. dolens = assay: MIC by broth microdilution against A. dolens; type: cell-based, Achromobacter dolens; conditions: A. dolens isolates; for MIC Range: in µg/mL
Experimental: (§1) MIC values were determined using a modification of the standard broth microdilution reference method defined by the Clinical and Laboratory Standards Institute (CLSI), CLSL. 2015. Methods for Dilution Antimicrobial Susceptibility Tests for Bacteria That Grow Aerobically; Approved Standard-10th Edition. Clinical and Laboratory Standards Institute, Wayne, PA. The modification was based on the replacement of Mueller Hinton Broth with either CAA media (with and without NaCl) or CAA supplemented with 2.5% human serum. MIC is the minimum concentration of peptide sufficient to suppress at least 80% of the bacterial growth compared to control.
(§2) Based on these nine most prevalent strains, direct lytic agents, including GN370, AM1, AM2, and AM3, were evaluated against various isolates from each of the 9 strains. MICs and MBECs (Example 3) were determined, and a sputum inhibition test was conducted, as described below in Example 5.
(§3) The MICs for were determined as described below using the broth microdilution method for meropenem, GN370, AM1, AM2, and AM3. The results are shown below in Tables 8-12.

M. avium = assay: MIC against M. avium; type: cell-based, Mycobacterium avium; conditions: M. avium (ATCC 700898); CAAT media
M. fortuitum = assay: MIC against M. fortuitum; type: cell-based, Mycobacterium fortuitum; conditions: M. fortuitum (ATCC 6841); CAAT media
B. gladioli [1] = assay: MIC by broth microdilution against B. gladioli; type: cell-based, Burkholderia gladioli; conditions: B. gladioli isolates
Experimental: as §1, §2, §3

A. xylosoxidans [2] = conditions: for antibiofilm activity (MBEC) against A. xylosoxidans: 2-hour treatments
Experimental: (§4) Biofilms are then washed and treated with e.g., a 2-fold dilution series of the lysin in TSBg at e.g., 37° C. for 24 hours. After treatment, wells are washed, air-dried at e.g., 37° C. and stained with e.g., 0.05% crystal violet for 10 minutes.
(§5) The antibiofilm activity of GN370, AM1, AM2, and AM3 was evaluated against various Gram-negative bacteria prevalent in cystic fibrosis patients, including P. aeruginosa, S. maltophilia, and A. xylosoxidans.
(§6) The MBEC (after 2-hour treatments) was determined as described in Jones and Wozniak, PsI Produced by Mucoid Pseudomonas aeruginosa Contributes to the Establishment of Biofilms and Immune Evasion, Am. […] Microbiol.

B. multivorans = system: B. multivorans
Experimental: as §4, §5, §6

S. maltophilia [3] = system: S. maltophilia
Experimental: as §4, §5, §6

A. xylosoxidans [4] = assay: Time-kill assay in cystic fibrosis patient sputum, A. xylosoxidans; type: cell-based, Achromobacter xylosoxidans; conditions: for effect of sputum on antibacterial activity: 10% CF sputum vs no sputum; for killing by 1 hour, maintained at 24 hours: time-kill
Text: Sputum from 5 cystic fibrosis patients was pooled. The resulting mixture was not filtered, as it was very dense and not amenable to sterilization by filtration. Sputum is known to be a complex mixture of DNA, carbohydrates, and lipids ([…], 2016). As used herein, the term “sputum” refers to the mucus present in the respiratory tract of an animal, such as a human. Sputum may increase in thickness due to the irritation or infection, including bacterial infection, and in some instances, may be expelled by the animal while coughing. In certain instances, cystic fibrosis may be characterized by the presence of a thick, sticky mucus or sputum present in the lungs of cystic fibrosis patients. The activity of GN370, AM1, AM2, AM3, and meropenem was determined in the sputum using a time-kill assay format as disclosed in Zhang et al., Antimicrobial peptide therapeutics for cystic fibrosis, Antimicrobial Agents Chemother. 2005; 49(7):2921-2927. […] Untreated controls were included in addition to pretreatment plating (t=0) for a baseline CFU determination. Activity was also determined in the absence of sputum for comparison to activity observed in the presence of sputum.

M. smegmatis = assay: MIC against M. smegmatis; type: cell-based, Mycobacterium smegmatis; conditions: M. smegmatis (MC 155); CAAT media
S. maltophilia [5] = conditions: for MIC: S. maltophilia test organism of the sputum time-kill assay; for activity (MIC) against S. maltophilia isolates: all tested isolates, Tables 8-12
P. aeruginosa = conditions: for antibiofilm activity (MBEC) against P. aeruginosa: 2-hour treatments
S. maltophilia [6] = assay: Serial passage resistance development study, S. maltophilia; type: cell-based, Stenotrophomonas maltophilia; conditions: S. maltophilia, day 28, triplicate
B. gladioli [7] = type: cell-based, Burkholderia gladioli; conditions: B. gladioli (15); 2-hour treatment
Experimental: The MBEC (after 2-hour treatments) was determined as described in Jones and Wozniak, PsI Produced by Mucoid Pseudomonas aeruginosa Contributes to the Establishment of Biofilms and Immune Evasion, Am. Soc. Microbiol. 2017, 8(3):e00864-17. Meropenem and tobramycin were included as controls and were both poorly active, with MBEC90 values of >256 μg/mL (data not shown).

A. xylosoxidans [8] = type: cell-based, Achromobacter xylosoxidans; conditions: for MIC: A. xylosoxidans test organism of the sputum time-kill assay
Experimental: as §1, §3
The activity of GN370 and AM1 was evaluated against various bacterial isolates, including mucoid and α-hemolytic isolates of P. aeruginosa, MDR isolates, and carbapenem-resistant isolates.

P. apista = assay: MIC by broth microdilution against P. apista; type: cell-based, Pandoraea apista; conditions: P. apista isolates
Experimental: as §1, §2, §3

[9] = S. maltophilia isolates, in µg/mL

## CC[C@H](C)[C@H](NC(=O)[C@@H](CCCNC(=N)N)NC(=O)[C@H](Cc1ccccc1)NC(=O)CNC(=O)CNC(=O)[C@@H](CCCNC(=N)N)NC(=O)[C@H](CCSC)NC(=O)[C@@H]1CCCN1C(=O)[C@@H](CCCNC(=N)N)NC(=O)[C@H](C)NC(=O)[C@@H](CCCNC(=N)N)NC(=O)[C@H](CC(C)C)NC(=O)[C@H](CC(N)=O)NC(=O)[C@@H](CCCNC(=N)N)NC(=O)[C@@H](CCCCN)NC(=O)[C@@H](CCCCN)NC(=O)[C@@H](NC(=O)[C@H](CC(N)=O)NC(=O)[C@@H](NC(=O)[C@H](C)NC(=O)CNC(=O)[C@@H](CCCNC(=N)N)NC(=O)[C@@H](NC(=O)[C@H](Cc1ccccc1)NC(=O)[C@@H](NC(=O)[C@@H](CCCCN)NC(=O)[C@@H](CCCNC(=N)N)NC(=O)[C@H](CO)NC(=O)[C@@H](CCCCN)NC(=O)[C@@H](CCCCN)NC(=O)[C@@H](CCCCN)NC(=O)[C@H](CO)NC(=O)[C@H](CC(C)C)NC(=O)[C@@H](CCCCN)NC(=O)[C@@H](CCCNC(=N)N)NC(=O)[C@@H](CCCNC(=N)N)NC(=O)[C@@H](CCCCN)NC(=O)[C@@H](N)CCSC)[C@@H](C)CC)[C@@H](C)O)C(C)C)C(C)C)C(=O)O [AM3] (H-M[dK][dR][dR][dK]LS[dK][dK][dK]S[dR][dK]IFT[dR]GAVNV[dK][dK][dR]NL[dR]A[dR]PM[dR]GGF[dR]I-OH; N-terminus and C-terminus assumed)
A. dolens
  MIC50: 2 µg/mL (≈ 0.438 µM)
  MIC90: 8 µg/mL (≈ 1.75 µM)
  MIC Range: 0.016-16
M. avium
  MIC: 1 Tg/mL
M. fortuitum
  MIC: 2 µg/mL (≈ 0.438 µM)
B. gladioli [1]
  MIC50: 32 µg/mL (≈ 7 µM)
  MIC90: 128 µg/mL (≈ 28 µM)
A. xylosoxidans [2]
  MBEC50: 1 µg/mL
  MBEC90: 2 µg/mL
  MBEC Range: 0.125 to 4 µg/mL
  antibiofilm activity (MBEC) against A. xylosoxidans: primarily active
B. multivorans
  MBEC50: 2 µg/mL
  MBEC90: 4 µg/mL
  MBEC Range: 1 to 8 µg/mL
S. maltophilia [3]
  MBEC50: 1 µg/mL
  MBEC90: 2 µg/mL
  MBEC Range: 0.125 to 16 µg/mL
A. xylosoxidans [4]
  effect of sputum on antibacterial activity: none of GN370, AM1, AM2, and AM3 was inhibited
  killing by 1 hour, maintained at 24 hours: complete killing
A. xylosoxidans [4]; absence of sputum, 1 hr
  Log10 CFU/mL of sputum: 4.3 Log10 CFU/mL of sputum
A. xylosoxidans [4]; absence of sputum, 3 hr
  Log10 CFU/mL of sputum: 3.3 Log10 CFU/mL of sputum
A. xylosoxidans [4]; absence of sputum, 24 hr
  Log10 CFU/mL of sputum: 2.3 Log10 CFU/mL of sputum
A. xylosoxidans [4]; presence of 10% sputum, 1 hr
  Log10 CFU/mL of sputum: 2.3 Log10 CFU/mL of sputum
A. xylosoxidans [4]; presence of 10% sputum, 3 hr
  Log10 CFU/mL of sputum: 2.3 Log10 CFU/mL of sputum
A. xylosoxidans [4]; presence of 10% sputum, 24 hr
  Log10 CFU/mL of sputum: 2.3 Log10 CFU/mL of sputum
M. smegmatis
  MIC: 1 µg/mL (≈ 0.219 µM)
S. maltophilia [5]; S. maltophilia isolates
  MIC50: 0.5 µg/mL (≈ 0.109 µM)
  MIC90: 1 µg/mL (≈ 0.219 µM)
S. maltophilia [5]; [9]
  MIC Range: 0.016-2
S. maltophilia [5]
  MIC: AM3 (MIC = 0.25)
  activity (MIC) against S. maltophilia isolates: highly active
P. aeruginosa
  MBEC50: 0.125 µg/mL
  MBEC90: 1 µg/mL
  MBEC Range: 0.016 to 1 µg/mL
  antibiofilm activity (MBEC) against P. aeruginosa: primarily active
S. maltophilia [6]
  change in MIC over serial passage: no increase in MIC
B. gladioli [7]
  MBEC50: 4 µg/mL
  MBEC90: 16 µg/mL
A. xylosoxidans [8]; A. xylosoxidans isolates
  MIC50: 2 µg/mL (≈ 0.438 µM)
  MIC90: 16 µg/mL (≈ 3.5 µM)
A. xylosoxidans [8]
  MIC: AM3 (MIC = 0.5)
P. apista
  MIC50: > 128 µg/mL
  MIC90: > 128 µg/mL

## MRLKMARRRYRLPRRRSRRLFSRTALRMHPRNRLRRIMRGGIRF [AM1]
A. dolens
  MIC50: 1 µg/mL
  MIC90: 2 µg/mL
  MIC Range: 0.06-4
M. avium
  MIC: 1 Tg/mL
M. fortuitum
  MIC: 2 µg/mL
B. gladioli [1]
  MIC50: 8 µg/mL
  MIC90: 64 µg/mL
B. gladioli [1]; in µg/mL
  MIC Range: 0.03-128
A. xylosoxidans [2]
  MBEC50: 0.5 µg/mL
  MBEC90: 1 µg/mL
  MBEC Range: 0.125 to 2 µg/mL
  antibiofilm activity (MBEC) against A. xylosoxidans: highly active
B. multivorans
  MBEC50: 2 µg/mL
  MBEC90: 4 µg/mL
  MBEC Range: 2 to 4 µg/mL
B. multivorans; 2-hour treatments
  antibiofilm activity (MBEC) against B. multivorans: highly active
S. maltophilia [3]
  MBEC50: 1 µg/mL
  MBEC90: 2 µg/mL
  MBEC Range: 0.25 to 2 µg/mL
S. maltophilia [3]; 2-hour treatments
  antibiofilm activity (MBEC) against S. maltophilia: highly active
A. xylosoxidans [4]
  effect of sputum on antibacterial activity: none of GN370, AM1, AM2, and AM3 was inhibited
  killing by 1 hour, maintained at 24 hours: complete killing
A. xylosoxidans [4]; absence of sputum, 1 hr
  Log10 CFU/mL of sputum: 2.3 Log10 CFU/mL of sputum
A. xylosoxidans [4]; absence of sputum, 3 hr
  Log10 CFU/mL of sputum: 2.3 Log10 CFU/mL of sputum
A. xylosoxidans [4]; absence of sputum, 24 hr
  Log10 CFU/mL of sputum: 2.3 Log10 CFU/mL of sputum
A. xylosoxidans [4]; presence of 10% sputum, 1 hr
  Log10 CFU/mL of sputum: 2.3 Log10 CFU/mL of sputum
A. xylosoxidans [4]; presence of 10% sputum, 3 hr
  Log10 CFU/mL of sputum: 2.3 Log10 CFU/mL of sputum
A. xylosoxidans [4]; presence of 10% sputum, 24 hr
  Log10 CFU/mL of sputum: 2.3 Log10 CFU/mL of sputum
M. smegmatis
  MIC: 4 µg/mL
S. maltophilia [5]
  AM1 MIC50: 0.5 µg/mL
  AM1 MIC90: 1 µg/mL
  MIC50: 0.5 µg/mL
  MIC90: 1 µg/mL
  MIC: AM1 (MIC = 0.5)
  activity (MIC) against S. maltophilia isolates: highly active
S. maltophilia [5]; MDR S. maltophilia isolates (n = 8), in µg/mL
  MIC Range: 0.5-1
S. maltophilia [5]; S. maltophilia isolates
  MIC50: 0.5 µg/mL
  MIC90: 1 µg/mL
S. maltophilia [5]; [9]
  MIC Range: 0.016-1
S. maltophilia [5]; carbapenem-resistant S. maltophilia isolates (n = 23), in µg/mL
  AM1 MIC Range: 0.016-1
P. aeruginosa
  MBEC50: 0.5 µg/mL
  MBEC90: 1 µg/mL
  MBEC Range: 0.064 to 2 µg/mL
  antibiofilm activity (MBEC) against P. aeruginosa: highly active
S. maltophilia [6]
  change in MIC over serial passage: no increase in MIC
B. gladioli [7]
  MBEC50: 4 µg/mL
  MBEC90: 16 µg/mL
  MBEC Range: 0.5 to 32 µg/mL
A. xylosoxidans [8]
  AM1 MIC50: 0.5 µg/mL
  AM1 MIC90: 1 µg/mL
  MIC50: 1 µg/mL
  MIC90: 4 µg/mL
  MIC: AM1 (MIC = 0.5)
A. xylosoxidans [8]; A. xylosoxidans isolates
  MIC50: 0.5 µg/mL
  MIC90: 2 µg/mL
A. xylosoxidans [8]; A. xylosoxidans isolates, in µg/mL
  MIC Range: 0.016-4
A. xylosoxidans [8]; MDR A. xylosoxidans isolates (n = 14), in µg/mL
  MIC Range: 0.5-4
A. xylosoxidans [8]; carbapenem-resistant A. xylosoxidans isolates (n = 7), in µg/mL
  AM1 MIC Range: 0.06225-1
P. apista
  MIC50: 64 µg/mL
  MIC90: > 128 µg/mL
